# Target: TAR RNA
# Test: In vitro binding of resin-bound compounds to TAR RNA (OD260 of unbound RNA)
# Parameters: species or system HIV
# Settings: in vitro assay; compounds of formula I on TentaGel beads incubated with TAR RNA overnight at 4° C. in TK buffer; read-out: Kd (nM), binding constants
# Method: Binding of compounds of formula I and V to TAR RNA was measured by evaluating their inhibition of TAR-TAT complex formation in the presence of increasing levels of the compound to be tested. The compounds of formula I were tested in an in vitro assay; the compounds of formula V were tested in an in vivo assay.
# The TAR RNA used corresponds to the minimal sequence required for TAT responsiveness in vivo. This 29-residue oligonucleotide has the sequence: 5′-[…]-3′ (SEQ ID NO.: 1). TAR RNA was prepared by in vitro transcription. A “top strand” single-stranded DNA oligomer having the sequence 5′-TAATACGACTCACTATAG-3′ (SEQ ID NO.: 2) was annealed to a “bottom strand” single-stranded DNA template having the following sequence: 3′-[…]-5′ (SEQ ID NO.: 3), thereby generating a double-stranded region corresponding to a promoter sequence recognized by T7 RNA polymerase. Transcription was carried out in transcription buffer (40 mM Tris-HCl, pH 8.1, 1 mM spermidine, 0.01% Triton®X-100, 5 mM dithiothreitol, 4 mM each of ATP, GTP, CTP, and UTP at 37° C. for 4 to 5 hours. Reactions were performed in a volume of 0.02 ml containing 8 pmole of template (top strand annealed to bottom strand) and 40 to 60 units of T7 RNA polymerase. Transcription was terminated by adding an equal volume of loading buffer (9M urea, 1 mmol EDTA, 0.1M bromophenol blue in 1XTBE buffer; TBE is 45 mmol trisborate at pH 8). Product RNA was purified by electrophoresis through a denaturing 20% polyacrylamide gel containing 8M urea. RNA was extracted from the gel, precipitated, dissolved in dithylpyrocarbonate-treated water, and stored at −20° C. until used.
# In vitro assay conditions: Compounds AA-DU were synthesized on TentaGel S—NH2 (4.6 mmole). All Fmoc-amino acids were purchased from Bachem (Torrance, Calif.). 1-hydroxybenzotriazole (HOBT) and diisopropylcarbodiimide (DIPCDI) were obtained from Aldrich Chemical Co., Milwalkee, Wis. Piperidine and trifluoroacetic acid were purchased from Applied Biosystems Division, Perkin-Elmer. Compounds AA-DU were synthesized manually according to standard solid-phase peptide synthesis protocols. Coupling efficiencies of residues at each step were monitored by Kaiser test. Deprotection of trimer peptides was carried out in 10% water in trifluoroacetic acid (1 mL) for 16 hours at room temperature. After filtration of solvents, the resin was washed with water (1 mL×4), DMF (1 mL×4), dichloromethane (1 mL×4), and dried under reduced pressure. The compounds attached to the resin (10 beads) were placed in an Eppendorf tube and washed with TK buffer ([…]). The beads were suspended in TK buffer ([…]) and incubated with TAR RNA ([…]) overnight at 4° C. The suspension was centrifuged and the supernatant containing unbound RNA was transferred to a cuvette for OD260 measurements. The UV absorbance was measured by a Shimadzu UV-1601 spectrometer. Equilibrium concentrations of RNA were determined from these measurements. Given that the initial concentrations of ligand and RNA are known, and assuming simple bimolecular receptor/substrate binding, dissociation constant (KD) was calculated from straightforward equations.
row,Compound,Kd
1,"NCCCC[C@H](N)COC(=O)N[C@H](CCCCN)COC(=O)N[C@@H](CCCCN)COC(N)=O [Compound CA, Carbamic acid 6-amino-2-[6-amino-2-(2,6-diamino-hexyloxycarbonylamino)-hexyloxycarbonylamino]-hexyl ester]",460 nM
2,"NCCCC[C@@H](N)COC(=O)N[C@H](CCCCN)COC(=O)N[C@@H](CCCCN)COC(N)=O [Compound CB, Carbamic acid 6-amino-2-[6-amino-2-(2,6-diamino-hexyloxycarbonylamino)-hexyloxycarbonylamino]-hexyl ester]",603 nM
3,"NCCCC[C@@H](COC(N)=O)NC(=O)OC[C@@H](CCCCN)NC(=O)[C@@H](N)CCCCN [Compound CC, Carbamic acid 6-amino-2-[6-amino-2-(2,6-diamino-hexanoylamino)-hexyloxycarbonylamino]-hexyl ester]",567 nM
4,"NCCCCCNCC(=O)N[C@H](CCCCN)COC(=O)N[C@@H](CCCCN)COC(N)=O [Compound CE, Carbamic acid 6-amino-2-{6-amino-2-[2-(5-amino-pentylamino)-acetylamino]-hexyloxycarbonylamino}-hexyl ester]",301 nM
5,"NCCCCCCCNCC(=O)N[C@H](CCCCN)COC(=O)N[C@@H](CCCCN)COC(N)=O [Compound CF, Carbamic acid 6-amino-2-{6-amino-2-[2-(7-amino-heptylamino)-acetylamino]-hexyloxycarbonylamino}-hexyl ester]",567 nM
6,"NCCCCNCC(=O)N[C@H](CCCCN)COC(=O)N[C@@H](CCCCN)COC(N)=O [Compound CG, Carbamic acid 6-amino-2-{6-amino-2-[2-(4-amino-butylamino)-acetylamino]-hexyloxycarbonylamino}-hexyl ester]",603 nM
7,"N=C(N)NCCC[C@H](N)COC(=O)N[C@H](CCCCN)COC(=O)N[C@@H](CCCCN)COC(N)=O [Compound CH, Carbamic acid 6-amino-2-[6-amino-2-(2-amino-5-guanidino-pentyloxycarbonylamino)-hexyloxycarbonylamino]-hexyl ester]",865 nM
8,"NCCCC[C@@H](N)COC(=O)N[C@@H](CCCCN)COC(=O)N[C@@H](CCCCN)COC(N)=O [Compound CK, Carbamic acid 6-amino-2-[6-amino-2-(2,6-diamino-hexyloxycarbonylamino)-hexyloxycarbonylamino]-hexyl ester]",1110 nM
9,"NCCCC[C@@H](COC(N)=O)NC(=O)OC[C@H](CCCCN)NC(=O)[C@H](N)CCCCN [Compound CM, Carbamic acid 6-amino-2-[6-amino-2-(2,6-diamino-hexanoylamino)-hexyloxycarbonylamino]-hexyl ester]",491 nM
10,"NCCCCCNCC(=O)N[C@@H](CCCCN)COC(=O)N[C@@H](CCCCN)COC(N)=O [Compound CN, Carbamic acid 6-amino-2-{6-amino-2-[2-(5-amino-pentylamino)-acetylamino]-hexyloxycarbonylamino}-hexyl ester]",235 nM
11,"NCCCCCCCNCC(=O)N[C@@H](CCCCN)COC(=O)N[C@@H](CCCCN)COC(N)=O [Compound CO, Carbamic acid 6-amino-2-{6-amino-2-[2-(7-amino-heptylamino)-acetylamino]-hexyloxycarbonylamino}-hexyl ester]",147 nM
12,"NCCCCNCC(=O)N[C@@H](CCCCN)COC(=O)N[C@@H](CCCCN)COC(N)=O [Compound CP, Carbamic acid 6-amino-2-{6-amino-2-[2-(4-amino-butylamino)-acetylamino]-hexyloxycarbonylamino}-hexyl ester]",678 nM
13,"NCCCC[C@@H](COC(N)=O)NC(=O)OC[C@H](CCCCN)NC(=O)OC[C@H](N)CCC(N)=O [Compound CR, Carbamic acid 6-amino-2-[6-amino-2-(2-amino-4-carbamoyl-butoxycarbonylamino)-hexyloxycarbonylamino]-hexyl ester]",981 nM
14,"NCCCC[C@@H](COC(N)=O)NC(=O)CN(CCCCN)C(=O)OC[C@H](N)CCC(N)=O [Compound DA, Carbamic acid 6-amino-2-{2-[(4-amino-butyl)-(2-amino-4-carbamoyl-butoxycarbonyl)-amino]-acetylamino}-hexyl ester]",301 nM

# Other lines, results leading:
row,Kd,Compound
1,2350 nM,"N=C(N)NCCC[C@H](N)COC(=O)N[C@@H](CCCCN)COC(=O)N[C@@H](CCCCN)COC(N)=O [Compound CQ, Carbamic acid 6-amino-2-[6-amino-2-(2-amino-5-guanidino-pentyloxycarbonylamino)-hexyloxycarbonylamino]-hexyl ester]"
2,491 nM,"NCCCC[C@H](N)COC(=O)N(CCCCN)CC(=O)N[C@@H](CCCCN)COC(N)=O [Compound CS, Carbamic acid 6-amino-2-{2-[(4-amino-butyl)-(2,6-diamino-hexyloxycarbonyl)-amino]-acetylamino}-hexyl ester]"
3,147 nM,"NCCCC[C@@H](N)COC(=O)N(CCCCN)CC(=O)N[C@@H](CCCCN)COC(N)=O [Compound CT, Carbamic acid 6-amino-2-{2-[(4-amino-butyl)-(2,6-diamino-hexyloxycarbonyl)-amino]-acetylamino}-hexyl ester]"
4,718 nM,"NCCCC[C@@H](COC(N)=O)NC(=O)CN(CCCCN)C(=O)[C@@H](N)CCCCN [Compound CU, Carbamic acid 6-amino-2-{2-[(4-amino-butyl)-(2,6-diamino-hexanoyl)-amino]-acetylamino}-hexyl ester]"
5,567 nM,"NCCCC[C@@H](COC(N)=O)NC(=O)CN(CCCCN)C(=O)[C@H](N)CCCCN [Compound CV, Carbamic acid 6-amino-2-{2-[(4-amino-butyl)-(2,6-diamino-hexanoyl)-amino]-acetylamino}-hexyl ester]"
6,3980 nM,NCCCCCNCC(=O)N(CCCCN)CC(=O)N[C@@H](CCCCN)COC(N)=O [Compound CW]
7,256 nM,"NCCCCCCCNCC(=O)N(CCCCN)CC(=O)N[C@@H](CCCCN)COC(N)=O [Compound CX, Carbamic acid 6-amino-2-(2-{(4-amino-butyl)-[2-(7-amino-heptylamino)-acetyl]-amino}-acetylamino)-hexyl ester]"
8,523 nM,"NCCCCNCC(=O)N(CCCCN)CC(=O)N[C@@H](CCCCN)COC(N)=O [Compound CY, Carbamic acid 6-amino-2-(2-{(4-amino-butyl)-[2-(4-amino-butylamino)-acetyl]-amino}-acetylamino)-hexyl ester]"
9,183 nM,"N=C(N)NCCC[C@H](N)COC(=O)N(CCCCN)CC(=O)N[C@@H](CCCCN)COC(N)=O [Compound CZ, Carbamic acid 6-amino-2-{2-[(4-amino-butyl)-(2-amino-5-guanidino-pentyloxycarbonyl)-amino]-acetylamino}-hexyl ester]"
10,256 nM,"NCCCCCN(CC(=O)N[C@@H](CCCCN)COC(N)=O)C(=O)OC[C@@H](N)CCCCN [Compound DB, Carbamic acid 6-amino-2-{2-[(5-amino-pentyl)-(2,6-diamino-hexyloxycarbonyl)-amino]-acetylamino}-hexyl ester]"
11,5110 nM,"NCCCCCN(CC(=O)N[C@@H](CCCCN)COC(N)=O)C(=O)OC[C@H](N)CCCCN [Compound DC, Carbamic acid 6-amino-2-{2-[(5-amino-pentyl)-(2,6-diamino-hexyloxycarbonyl)-amino]-acetylamino}-hexyl ester]"
12,567 nM,"NCCCCCN(CC(=O)N[C@@H](CCCCN)COC(N)=O)C(=O)[C@@H](N)CCCCN [Compound DD, Carbamic acid 6-amino-2-{2-[(5-amino-pentyl)-(2,6-diamino-hexanoyl)-amino]-acetylamino}-hexyl ester]"
13,120 nM,"NCCCCCN(CC(=O)N[C@@H](CCCCN)COC(N)=O)C(=O)[C@H](N)CCCCN [Compound DE, Carbamic acid 6-amino-2-{2-[(5-amino-pentyl)-(2,6-diamino-hexanoyl)-amino]-acetylamino}-hexyl ester]"
14,31400 nM,"NCCCCCNCC(=O)N(CCCCCN)CC(=O)N[C@@H](CCCCN)COC(N)=O [Compound DF, Carbamic acid 6-amino-2-(2-{(5-amino-pentyl)-[2-(5-amino-pentylamino)-acetyl]-amino}-acetylamino)-hexyl ester]"
